Laboratory results as given in PubChem BioAssay AID1259407 (Chemical Carcinogenesis Research Information System (CCRIS), 2018).
Calls of active or inactive are those of the source. How the calls were made is not given here.

Tested on: CCRIS mutagenicity, Ames/micronucleus/aberration tests
Experiment: CCRIS mutagenicity studies
[1] = Test System: AMES SALMONELLA TYPHIMURIUM, Strain/Indicator: TA98, Metabolic Activation: NONE, Method: PREINCUBATION
[2] = Test System: AMES SALMONELLA TYPHIMURIUM, Strain/Indicator: TA98, Metabolic Activation: RAT LIVER S-9, PHENOBARBITAL AND BETA-NAPHTHOFLAVONE, Method: PREINCUBATION
[3] = Test System: AMES SALMONELLA TYPHIMURIUM, Strain/Indicator: TA100, Metabolic Activation: NONE, Method: PREINCUBATION
[4] = Test System: AMES SALMONELLA TYPHIMURIUM, Strain/Indicator: TA100, Metabolic Activation: RAT LIVER S-9, PHENOBARBITAL AND BETA-NAPHTHOFLAVONE, Method: PREINCUBATION
[5] = Test System: AMES SALMONELLA TYPHIMURIUM, Strain/Indicator: TA1535, Metabolic Activation: NONE, Method: PREINCUBATION
[6] = Test System: AMES SALMONELLA TYPHIMURIUM, Strain/Indicator: TA1535, Metabolic Activation: RAT LIVER S-9, PHENOBARBITAL AND BETA-NAPHTHOFLAVONE, Method: PREINCUBATION
[7] = Test System: AMES SALMONELLA TYPHIMURIUM, Strain/Indicator: TA1537, Metabolic Activation: NONE, Method: PREINCUBATION
[8] = Test System: AMES SALMONELLA TYPHIMURIUM, Strain/Indicator: TA1537, Metabolic Activation: RAT LIVER S-9, PHENOBARBITAL AND BETA-NAPHTHOFLAVONE, Method: PREINCUBATION
[9] = Test System: E.COLI, Strain/Indicator: WP2UVRA, Metabolic Activation: NONE, Method: PREINCUBATION
[10] = Test System: E.COLI, Strain/Indicator: WP2UVRA, Metabolic Activation: RAT LIVER S-9, PHENOBARBITAL AND BETA-NAPHTHOFLAVONE, Method: PREINCUBATION

Measured: mutagenic call

Cc1ccccc1Br
inactive: Test System: AMES SALMONELLA TYPHIMURIUM, Strain/Indicator: TA97, Metabolic Activation: HAMSTER, LIVER, S-9, AROCLOR 1254 (10%), Method: PREINCUBATION inactive; negative | Test System: AMES SALMONELLA TYPHIMURIUM, Strain/Indicator: TA97, Metabolic Activation: HAMSTER, LIVER, S-9, AROCLOR 1254 (30%), Method: PREINCUBATION inactive; negative | Test System: AMES SALMONELLA TYPHIMURIUM, Strain/Indicator: TA97, Metabolic Activation: NONE, Method: PREINCUBATION inactive; negative | Test System: AMES SALMONELLA TYPHIMURIUM, Strain/Indicator: TA97, Metabolic Activation: RAT, LIVER, S-9, AROCLOR 1254 (10%), Method: PREINCUBATION inactive; negative | Test System: AMES SALMONELLA TYPHIMURIUM, Strain/Indicator: TA97, Metabolic Activation: RAT, LIVER, S-9, AROCLOR 1254 (30%), Method: PREINCUBATION inactive; negative | Test System: AMES SALMONELLA TYPHIMURIUM, Strain/Indicator: TA98, Metabolic Activation: HAMSTER, LIVER, S-9, AROCLOR 1254 (10%), Method: PREINCUBATION inactive; negative | Test System: AMES SALMONELLA TYPHIMURIUM, Strain/Indicator: TA98, Metabolic Activation: HAMSTER, LIVER, S-9, AROCLOR 1254 (30%), Method: PREINCUBATION inactive; negative | [1] inactive; negative | [2] inactive; negative | Test System: AMES SALMONELLA TYPHIMURIUM, Strain/Indicator: TA98, Metabolic Activation: RAT, LIVER, S-9, AROCLOR 1254 (10%), Method: PREINCUBATION inactive; negative | Test System: AMES SALMONELLA TYPHIMURIUM, Strain/Indicator: TA98, Metabolic Activation: RAT, LIVER, S-9, AROCLOR 1254 (30%), Method: PREINCUBATION inactive; negative | Test System: AMES SALMONELLA TYPHIMURIUM, Strain/Indicator: TA100, Metabolic Activation: HAMSTER, LIVER, S-9, AROCLOR 1254 (10%), Method: PREINCUBATION inactive; negative | Test System: AMES SALMONELLA TYPHIMURIUM, Strain/Indicator: TA100, Metabolic Activation: HAMSTER, LIVER, S-9, AROCLOR 1254 (30%), Method: PREINCUBATION inactive; negative | [3] inactive; negative | [4] inactive; negative | Test System: AMES SALMONELLA TYPHIMURIUM, Strain/Indicator: TA100, Metabolic Activation: RAT, LIVER, S-9, AROCLOR 1254 (10%), Method: PREINCUBATION inactive; negative | Test System: AMES SALMONELLA TYPHIMURIUM, Strain/Indicator: TA100, Metabolic Activation: RAT, LIVER, S-9, AROCLOR 1254 (30%), Method: PREINCUBATION inactive; negative | Test System: AMES SALMONELLA TYPHIMURIUM, Strain/Indicator: TA102, Metabolic Activation: NONE, Method: PREINCUBATION inactive; negative | Test System: AMES SALMONELLA TYPHIMURIUM, Strain/Indicator: TA102, Metabolic Activation: RAT LIVER S-9, PHENOBARBITAL AND BETA-NAPHTHOFLAVONE, Method: PREINCUBATION inactive; negative | Test System: AMES SALMONELLA TYPHIMURIUM, Strain/Indicator: TA104, Metabolic Activation: NONE, Method: PREINCUBATION inactive; negative | Test System: AMES SALMONELLA TYPHIMURIUM, Strain/Indicator: TA104, Metabolic Activation: RAT LIVER S-9, PHENOBARBITAL AND BETA-NAPHTHOFLAVONE, Method: PREINCUBATION inactive; negative | Test System: AMES SALMONELLA TYPHIMURIUM, Strain/Indicator: TA1535, Metabolic Activation: HAMSTER, LIVER, S-9, AROCLOR 1254 (10%), Method: PREINCUBATION inactive; negative | Test System: AMES SALMONELLA TYPHIMURIUM, Strain/Indicator: TA1535, Metabolic Activation: HAMSTER, LIVER, S-9, AROCLOR 1254 (30%), Method: PREINCUBATION inactive; negative | [5] inactive; negative | [6] inactive; negative | Test System: AMES SALMONELLA TYPHIMURIUM, Strain/Indicator: TA1535, Metabolic Activation: RAT, LIVER, S-9, AROCLOR 1254 (10%), Method: PREINCUBATION inactive; negative | Test System: AMES SALMONELLA TYPHIMURIUM, Strain/Indicator: TA1535, Metabolic Activation: RAT, LIVER, S-9, AROCLOR 1254 (30%), Method: PREINCUBATION inactive; negative | Test System: AMES SALMONELLA TYPHIMURIUM, Strain/Indicator: TA1537, Metabolic Activation: HAMSTER, LIVER, S-9, AROCLOR 1254 (30%), Method: PREINCUBATION inactive; negative | [7] inactive; negative | [8] inactive; negative | Test System: AMES SALMONELLA TYPHIMURIUM, Strain/Indicator: TA1537, Metabolic Activation: RAT, LIVER, S-9, AROCLOR 1254 (30%), Method: PREINCUBATION inactive; negative | Test System: E.COLI, Strain/Indicator: WP2UVRA/PKM101, Metabolic Activation: NONE, Method: PREINCUBATION inactive; negative | Test System: E.COLI, Strain/Indicator: WP2UVRA/PKM101, Metabolic Activation: RAT LIVER S-9, PHENOBARBITAL AND BETA-NAPHTHOFLAVONE, Method: PREINCUBATION inactive; negative | [9] inactive; negative | [10] inactive; negative

Cc1c2ccccc2c(CO)c2c3c(ccc12)[C@@H](O)[C@H](O)C=C3
active: Test System: CHINESE HAMSTER V-79, Strain/Indicator: V-79/6-THIOGUANINE, Metabolic Activation: CELL-MEDIATED, Method: STANDARD PLATE active; positive | Test System: CHINESE HAMSTER V-79, Strain/Indicator: V-79/OUABAIN, Metabolic Activation: CELL-MEDIATED, Method: STANDARD PLATE active; positive

N#Cc1ccccc1C#N
inactive: [1] inactive; negative | [2] inactive; negative | [3] inactive; negative | [4] inactive; negative | [5] inactive; negative | [6] inactive; negative | [7] inactive; negative | [8] inactive; negative | Test System: AMES SALMONELLA TYPHIMURIUM, Strain/Indicator: TA1538, Metabolic Activation: NONE, Method: PREINCUBATION inactive; negative | Test System: AMES SALMONELLA TYPHIMURIUM, Strain/Indicator: TA1538, Metabolic Activation: RAT LIVER S-9, PHENOBARBITAL AND BETA-NAPHTHOFLAVONE, Method: PREINCUBATION inactive; negative | [9] inactive; negative | [10] inactive; negative

C=CCc1[c-]cccc1.C=CCc1[c-]cccc1.[Pt+2]
inactive: Test System: AMES SALMONELLA TYPHIMURIUM, Strain/Indicator: TA92, Metabolic Activation: NONE, Method: STANDARD PLATE inactive; negative | Test System: AMES SALMONELLA TYPHIMURIUM, Strain/Indicator: TA98, Metabolic Activation: NONE, Method: STANDARD PLATE inactive; negative | Test System: AMES SALMONELLA TYPHIMURIUM, Strain/Indicator: TA100, Metabolic Activation: NONE, Method: STANDARD PLATE inactive; negative | Test System: AMES SALMONELLA TYPHIMURIUM, Strain/Indicator: TA2410, Metabolic Activation: NONE, Method: STANDARD PLATE inactive; negative

O=C(O[C@@H]1Cc2c(O)cc(O)cc2O[C@@H]1c1cc(O)c(O)c(O)c1)c1cc(O)c(O)c(O)c1
inactive: Test System: Ames Salmonella typhimurium, Strain/Indicator: TA102, Metabolic Activation: None, Method: Preincubation inactive; negative | Test System: Ames Salmonella typhimurium, Strain/Indicator: TA102, Metabolic Activation: Rat, Liver, S-9, Aroclor 1254 in 0.154 M KCl, Method: Preincubation inactive; negative
